Assay results as given in ChEMBL document CHEMBL1201862, “PubChem BioAssay data set” (2004).
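Cultured in 96-well plates, cells were exposed to test compound for 48 hours across five concentrations. Abbreviation: GI50, concentration required for 50% inhibition of growth.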 Active and inactive are the calls of the source. No stated cut-off is given here; in the data, active = GI50 up to about 1.1 µM and inactive = higher.

Key:
Assay in all cases: DTP human tumour cell line panel, 48 h
DLD-1 = system: DLD-1
DMS-114 = system: DMS-114
DMS-273 = system: DMS-273
HOP-18 = system: HOP-18
KM-20L2 = system: KM-20L2
LXFL 529 = system: LXFL 529
M19-MEL = system: M19-MEL
XF498 = system: XF498
RXF 631 = system: RXF 631

| SMILES | GI50 (DLD-1) | GI50 (DMS-114) | GI50 (DMS-273) | GI50 (HOP-18) | GI50 (KM-20L2) | GI50 (LXFL 529) | GI50 (M19-MEL) | GI50 (XF498) | GI50 (RXF 631) |
| --- | --- | --- | --- | --- | --- | --- | --- | --- | --- |
| NC(=S)N/N=C(/CC(=O)c1ccccc1)C(=O)Nc1ccc(Cl)c(Cl)c1 | 83.6 µM (inactive) | 71.6 µM (inactive) | 76.6 µM (inactive) | > 100 µM (inactive) | > 100 µM (inactive) | 83.4 µM (inactive) | > 100 µM (inactive) | – | – |
| Cn1c(-c2ccccc2)c/c(=N\NS(C)(=O)=O)c2cc(S(=O)(=O)O)ccc21 | > 100 µM (inactive) | > 100 µM (inactive) | > 100 µM (inactive) | > 100 µM (inactive) | > 100 µM (inactive) | > 100 µM (inactive) | > 100 µM (inactive) | > 100 µM (inactive) | – |
| COC(=O)C(Cc1nc2ccccc2nc1O)C(=O)C(=O)Nc1ccc([N+](=O)[O-])cc1[N+](=O)[O-] (stereo unspecified) | 19.5 µM (inactive) | 16.1 µM (inactive) | 17.6 µM (inactive) | 16.8 µM (inactive) | 20.4 µM (inactive) | 12.8 µM (inactive) | 16.6 µM (inactive) | 20.1 µM (inactive) | 24.5 µM (inactive) |
| CCC1(O)C(=O)OCc2c1cc1n(c2=O)Cc2cc3cc(OC)c(OC)cc3nc2-1 (stereo unspecified) | – | 12.8 µM (inactive) | – | 56.8 µM (inactive) | > 100 µM (inactive) | > 100 µM (inactive) | – | 34.3 µM (inactive) | – |
| CCCCC(C(=O)C(=O)NC1C2CC3CC(C2)CC1C3)C(=O)C(C)C (stereo unspecified) | – | > 100 µM (inactive) | > 100 µM (inactive) | > 100 µM (inactive) | > 100 µM (inactive) | > 100 µM (inactive) | > 100 µM (inactive) | > 100 µM (inactive) | > 100 µM (inactive) |
| Cc1ccc(NC(=O)C(=O)C(C(=O)c2ccc3ccccc3c2)C2OC(=O)c3ccccc32)cc1C (stereo unspecified) | 17.7 µM (inactive) | 9.35 µM (inactive) | 5.87 µM (inactive) | 0.743 µM (active) | 35.2 µM (inactive) | 8.36 µM (inactive) | 6.34 µM (inactive) | 3.29 µM (inactive) | – |
| c1ccc(C2=NOC3COc4ccccc4OCC23)cc1 (stereo unspecified) | – | > 100 µM (inactive) | > 100 µM (inactive) | – | > 100 µM (inactive) | > 100 µM (inactive) | – | – | – |
| Cc1nc2c(n1Cc1ccc(F)cc1)C(=O)c1ccccc1C2=O | – | – | 6.43 µM (inactive) | – | 38.5 µM (inactive) | 13.5 µM (inactive) | 3.62 µM (inactive) | 29.9 µM (inactive) | – |
| CC(=O)[O-].Cc1ncc(CO)c(/C=N/NC(N)=S)c1[O-].[Zn+2] | > 100 µM (inactive) | > 100 µM (inactive) | > 100 µM (inactive) | > 100 µM (inactive) | – | > 100 µM (inactive) | > 100 µM (inactive) | – | > 100 µM (inactive) |
| COc1ccc(OC(C(=O)O)c2ccccc2)c2c1CCCC2=O (stereo unspecified) | > 100 µM (inactive) | > 100 µM (inactive) | > 100 µM (inactive) | > 100 µM (inactive) | > 100 µM (inactive) | > 100 µM (inactive) | > 100 µM (inactive) | > 100 µM (inactive) | > 100 µM (inactive) |
| c1ccc(CN(Cc2ccccn2)Cn2cccn2)nc1 | 30.2 µM (inactive) | 22.1 µM (inactive) | 35.7 µM (inactive) | – | 51.5 µM (inactive) | – | 35 µM (inactive) | 60 µM (inactive) | 38 µM (inactive) |
| Cc1oc2c(c1C(=O)c1ccccc1)C(=O)c1ccccc1C2=O | 5.02 µM (inactive) | 2.45 µM (inactive) | 8.34 µM (inactive) | 16.6 µM (inactive) | 17.7 µM (inactive) | 1.62 µM (inactive) | 2.18 µM (inactive) | 2.32 µM (inactive) | 17.7 µM (inactive) |
| CC1=C(c2cc(C(=O)Nc3cccc(C(F)(F)F)c3)ncn2)Sc2ccccc2N1 | > 100 µM (inactive) | > 100 µM (inactive) | > 100 µM (inactive) | > 100 µM (inactive) | > 100 µM (inactive) | > 100 µM (inactive) | > 100 µM (inactive) | > 100 µM (inactive) | – |
| Cc1cccc2c1C/C(=C1\CCc3c(C)cccc31)C2=O | > 100 µM (inactive) | > 100 µM (inactive) | > 100 µM (inactive) | 38.3 µM (inactive) | > 100 µM (inactive) | > 100 µM (inactive) | > 100 µM (inactive) | – | > 100 µM (inactive) |
| CC(=O)N(O)Cc1ccccc1 | > 100 µM (inactive) | > 100 µM (inactive) | – | – | > 100 µM (inactive) | > 100 µM (inactive) | > 100 µM (inactive) | > 100 µM (inactive) | > 100 µM (inactive) |
| CCOC(=O)N1C/C(=C\c2ccc(N(C)C)cc2)C(=O)/C(=C/c2ccc(N(C)C)cc2)C1 | > 100 µM (inactive) | > 100 µM (inactive) | > 100 µM (inactive) | > 100 µM (inactive) | > 100 µM (inactive) | > 100 µM (inactive) | > 100 µM (inactive) | – | > 100 µM (inactive) |
| COc1ccc(OC)c2[nH]c(Sc3c([N+](=O)[O-])ncn3C)nc12 | 20.6 µM (inactive) | 17.4 µM (inactive) | 11.8 µM (inactive) | – | 20.4 µM (inactive) | 13 µM (inactive) | 20.6 µM (inactive) | 17.3 µM (inactive) | 18.5 µM (inactive) |
| C=CCNC(=O)N(CCCCC(NC(C)=O)C(=O)NCc1ccccc1)Cc1ccccc1 (stereo unspecified) | – | – | > 100 µM (inactive) | > 100 µM (inactive) | > 100 µM (inactive) | > 100 µM (inactive) | > 100 µM (inactive) | > 100 µM (inactive) | > 100 µM (inactive) |
| NCC(=O)OCN1C(=O)C2C3C=CC(C2C1=O)C1C2C(=O)N(COC(=O)CN)C(=O)C2C31 (stereo unspecified) | 25.1 µM (inactive) | 16.2 µM (inactive) | 19.8 µM (inactive) | 25.9 µM (inactive) | 28.6 µM (inactive) | 36.2 µM (inactive) | 21 µM (inactive) | 31.4 µM (inactive) | – |
| CCOC(=O)C(C)(C)Oc1ccc2c(=O)cc(-c3ccc(Cl)cc3)oc2c1 | > 100 µM (inactive) | > 100 µM (inactive) | > 100 µM (inactive) | – | > 100 µM (inactive) | > 100 µM (inactive) | > 100 µM (inactive) | > 100 µM (inactive) | > 100 µM (inactive) |
| Cc1ccc(S(=O)(=O)N/N=C\c2c3ccccc3[n+]([O-])c3ccccc23)cc1 | 2.65 µM (inactive) | 3.37 µM (inactive) | 3.41 µM (inactive) | 6.76 µM (inactive) | 2.96 µM (inactive) | 0.935 µM (active) | 7.67 µM (inactive) | – | 3.01 µM (inactive) |
